Laboratory results from patent US11166899B2, “Composition for external application containing a ceramide, a derivative thereof and an extract of Hibisci cortex” (AMOREPACIFIC CORPORATION, priority 2017, dated 2021).

Target: T1, PPARα (Homo sapiens, UniProt Q07869)
T1 construct: expressed in transfected cells; host or cells: HaCaT (human keratinocyte cell line), transiently transfected
T1 sequence (Q07869 1-468): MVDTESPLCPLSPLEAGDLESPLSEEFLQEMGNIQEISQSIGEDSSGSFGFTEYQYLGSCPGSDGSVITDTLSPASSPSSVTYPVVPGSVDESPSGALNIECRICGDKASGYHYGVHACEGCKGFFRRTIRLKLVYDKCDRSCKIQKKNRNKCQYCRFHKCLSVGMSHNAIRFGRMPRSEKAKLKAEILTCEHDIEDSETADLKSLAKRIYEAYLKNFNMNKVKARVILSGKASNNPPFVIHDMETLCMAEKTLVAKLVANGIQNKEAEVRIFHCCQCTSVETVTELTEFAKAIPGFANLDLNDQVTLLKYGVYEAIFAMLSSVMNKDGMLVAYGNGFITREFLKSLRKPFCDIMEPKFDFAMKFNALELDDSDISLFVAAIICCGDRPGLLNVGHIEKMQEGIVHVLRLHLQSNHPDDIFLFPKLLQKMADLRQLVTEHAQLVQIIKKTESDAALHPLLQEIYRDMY
Test: PPARα activation of single ceramide derivatives, PPRE-luciferase reporter in transfected HaCaT cells (Test Example 1)
Assay type: cell-based
Conditions: 24 hours, DMSO control = 100
Description: HaCaT, which is a human keratinocyte cell line, was subcultured in DMEM medium containing 10% fetal bovine serum, which is a phenol red-free medium, in order to eliminate the effect caused by the phenol red's estrogen. The following plasmids were used: a plasmid having PPARα, PPARβ/δ and PPARγ genes downstream of a universal promoter which is expressed in general culture conditions; a plasmid having a PPARs response element (“PPRE”) as a promoter, which is activated by binding with ligand-bound PPARs, and a firefly luciferase gene serving as a reporter downstream of the promoter; and a reference plasmid having a β-galactosidase gene bound to a universal promoter.
HaCaT cells were seeded into a 24-well plate at a density of 5×10^4 cells/well, cultured for 24 hours, and then transiently transfected with the plasmid genes. After 24 hours of culture, the cells were washed with phosphate buffered saline (PBS), and then treated with the compounds prepared in Reference Examples 2-1 to 2-4, and Reference Examples 3-11 to 3-15 at a concentration of 10 ppm. As a positive control group, the cells were treated with a previously-known PPARs ligand (PPARα ligand Wy-14643) at a concentration of 10 μM. As a negative control group, a group treated with DMSO used to dissolve the samples was used. After 24 hours of culture, the cells were washed with PBS, harvested, and measured for luciferase activity.
Results obtained by transfecting the HaCaT cell line with the PPRE promoter reporter plasmid and the PPARα expression plasmid, followed by treating the transfected cells with drugs, and measuring the luciferase activity of the cells

[1] = 10 ppm, HaCaT transfected with PPRE reporter and PPARα plasmids

Structure (SMILES)	Relative to Control Group (%) (luciferase activity) [1]	Relative to Control Group (%) (luciferase activity) (positive control, 10 μM, HaCaT)
CCCCCCCCCCCCCCCC(=O)N(CCO)CC(O)CN(CCO)C(=O)CCCCCCCCCCCCCCC [Reference Example 2-1, 1,3-bis(N-(2-hydroxyethyl)-palmitoylamino)-2-hydroxypropane]	263%	
CCCCCCCCCCCC(=O)N(CCO)CC(O)CN(CCO)C(=O)CCCCCCCCCCC [Reference Example 2-2, 1,3-Bis(N-(2-Hydroxyethyl)-Lauroylamino)-2-Hydroxypropane]	270%	
CCCCCCCC/C=C\CCCCCCCC(=O)N(CCO)CC(O)CN(CCO)C(=O)CCCCCCC/C=C\CCCCCCCC [Reference Example 2-3, 1,3-bis(N-(2-hydroxyethyl)-oleoylamino)-2-hydroxypropane]	255%	
CCCCCCCCCCCCCCCC(=O)N(CCO)CC(O)CNCCO (stereo not shown) [Reference Example 2-4, N,N′-bis(2-hydroxyethyl)-N-palmitoyl-N′-1,3-diamino-2-hydroxypropane]	260%	
CCCCCCCCCCCCCCCCN(CC(C)OP(=O)([O-])[O-])C(=O)CCCCCCCCCCCCCCC.[Na+].[Na+] (stereo not shown) [Reference Example 3-11, (N-hexadecyl-N-palmitoyl)-1-aminopropane-2-sodium phosphate]	272%	
CCCCCCCCCCCCCCCCN(CC(C)(C)OP(=O)([O-])[O-])C(=O)CCCCCCCCCCCCCCC.[Na+].[Na+] [Reference Example 3-12, (N-Hexadecyl-N-Palmitoyl)-1-Amino-2-Methylpropane-2-Sodium Phosphate]	270%	
CCCCCCCCCCCCCCCCN(CCOCCOP(=O)([O-])O)C(=O)CCCCCCCCCCCCCCC.[Na+] [Reference Example 3-13, (N-Hexadecyl-N-Palmitoyl)-1-Amino-2-Ethoxyethane-2-Sodium Phosphate]	259%	
CCCCCCCC/C=C\CCCCCCCCN(CC(C)OS(=O)(=O)[O-])C(=O)CCCCCCCCCCCCCCC.[Na+] (stereo not shown) [Reference Example 3-14, (N-oleyl-N-palmitoyl)-1-aminopropane-2-sodium sulfate]	278%	
CCCCCCCC/C=C\CCCCCCCCN(CC(C)(C)OS(=O)(=O)[O-])C(=O)CCCCCCCCCCCCCCC.[Na+] [Reference Example 3-15, (N-Oleyl-N-Palmitoyl)-1-Amino-2-Methylpropane-2-Sodium Sulfate]	269%	
Cc1cccc(Nc2cc(Cl)nc(SCC(=O)O)n2)c1C [Wy-14643, reference compound]		291%
